Test results from BigSolDB 2.1.

CC(=O)Nc1ccc(O)cc1
solubility (mole fraction)
Details | 298.15 K | 303.15 K | 308.15 K | 313.15 K | 318.15 K | 323.15 K | 328.15 K | 333.15 K
in transcutol | 0.111 | 0.118 | 0.126 | 0.134 | 0.144 | 0.153 | 0.166 | 0.178
in water | 0.0016 | 0.0019 | 0.0023 | 0.0027 | 0.0033 | 0.004 | 0.0047 | 0.0055
